Assay results published in US20120172384A1, “HETEROCYCLYLAMINOPYRIMIDINES AS KINASE INHIBITORS” (priority 2009, published 2012).

The compounds below were run against T1, JAK3 (Homo sapiens, UniProt P52333) (assay: JAK3 kinobeads assay). Conditions: cell lysate, dot blot with JAK3 specific antibody.
T1 construct: endogenous in cells
T1 sequence (P52333 1-1124): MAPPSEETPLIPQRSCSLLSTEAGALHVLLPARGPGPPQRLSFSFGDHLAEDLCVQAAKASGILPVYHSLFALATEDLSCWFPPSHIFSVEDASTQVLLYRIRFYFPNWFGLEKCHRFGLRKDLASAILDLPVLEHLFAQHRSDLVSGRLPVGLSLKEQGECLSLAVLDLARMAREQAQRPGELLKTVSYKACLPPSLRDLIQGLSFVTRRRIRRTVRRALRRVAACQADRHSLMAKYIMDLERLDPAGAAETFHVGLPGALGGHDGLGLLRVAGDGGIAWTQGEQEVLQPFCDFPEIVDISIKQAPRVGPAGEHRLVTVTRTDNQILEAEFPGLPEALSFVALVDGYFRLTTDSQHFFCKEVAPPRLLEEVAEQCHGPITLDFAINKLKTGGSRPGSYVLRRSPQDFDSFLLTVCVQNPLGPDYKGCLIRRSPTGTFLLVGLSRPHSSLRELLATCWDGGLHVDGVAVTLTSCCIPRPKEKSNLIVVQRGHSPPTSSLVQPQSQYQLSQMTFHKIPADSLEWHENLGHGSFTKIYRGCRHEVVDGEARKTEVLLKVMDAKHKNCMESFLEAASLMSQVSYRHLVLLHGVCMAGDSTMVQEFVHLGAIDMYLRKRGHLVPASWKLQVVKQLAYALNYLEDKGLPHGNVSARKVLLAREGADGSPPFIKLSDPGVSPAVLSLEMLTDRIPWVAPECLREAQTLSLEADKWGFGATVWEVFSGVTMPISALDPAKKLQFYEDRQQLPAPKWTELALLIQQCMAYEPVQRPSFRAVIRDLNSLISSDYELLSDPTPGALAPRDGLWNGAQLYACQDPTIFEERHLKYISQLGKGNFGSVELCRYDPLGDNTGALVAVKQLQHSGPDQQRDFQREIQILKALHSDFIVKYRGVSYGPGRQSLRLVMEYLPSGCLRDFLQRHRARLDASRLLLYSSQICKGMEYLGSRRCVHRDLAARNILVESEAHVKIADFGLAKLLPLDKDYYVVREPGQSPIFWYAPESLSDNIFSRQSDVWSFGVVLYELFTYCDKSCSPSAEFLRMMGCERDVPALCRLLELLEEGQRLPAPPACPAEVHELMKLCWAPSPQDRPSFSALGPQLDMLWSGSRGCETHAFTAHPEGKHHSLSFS
Type: binding
Description: The compounds of the present invention as described in the previous examples were tested in the ZAP-70 kinobeads assay as described (EP-A 1862802 and WO-A 2007/137867). Briefly, test compounds (at various concentrations) and the affinity matrix with the immobilized aminopyrido-pyrimidine ligand 24 are added to cell lysate aliquots and allowed to bind to the proteins in the lysate sample. After the incubation time the beads with captured proteins are separated from the lysate. Bound proteins are then eluted and the presence ZAP-70 is detected and quantified using a specific antibody in a dot blot procedure and the Odyssey infrared detection system.
Compounds were tested by the procedure described in Example 102 but using a JAK3 specific antibody (Cell Signaling Technology, Inc., Danvers, US, catalogue number 3775) instead of a ZAP70 antibody.

IC50 [nM]	SMILES
≤ 100	CS(=O)(=O)Nc1ccccc1Nc1nc(Nc2cnn(CC(F)F)c2)ncc1F [Example 85, N-(2-((2-((1-(2,2-difluoroethyl)-1H-pyrazol-4-yl)amino)-5-fluoropyrimidin-4-yl)amino)phenyl)methanesulfonamide]
1000 to 10000	CCS(=O)(=O)Nc1ccccc1Nc1nc(Nc2ccn(C)n2)ncc1F [Example 63, N-(2-((5-fluoro-2-((1-methyl-1H-pyrazol-3-yl)amino)pyrimidin-4-yl)amino)phenyl)ethanesulfonamide]
≤ 100	Cn1cc(Nc2ncc(F)c(Nc3cccc(F)c3NS(C)(=O)=O)n2)cn1 [Example 99, N-(2-fluoro-6-((5-fluoro-2-((1-methyl-1H-pyrazol-4-yl)amino)pyrimidin-4-yl)amino)phenyl)methanesulfonamide]
≤ 100	CCS(=O)(=O)Nc1ccccc1Nc1nc(Nc2cnn(C)c2)ncc1Cl [Example 57, N-(2-((5-chloro-2-((1-methyl-1H-pyrazol-4-yl)amino)pyrimidin-4-yl)amino)phenyl)ethanesulfonamide]
≤ 100	CS(=O)(=O)Nc1ccccc1Nc1nc(Nc2cnn(CCCC#N)c2)ncc1F [Example 66, N-(2-((2-((1-(3-cyanopropyl)-1H-pyrazol-4-yl)amino)-5-fluoropyrimidin-4-yl)amino)phenyl)methanesulfonamide]
≤ 100	CS(=O)(=O)Nc1ccccc1Nc1nc(Nc2cnn(CCCC#N)c2)ncc1Cl [Example 65, N-(2-((5-chloro-2-((1-(3-cyanopropyl)-1H-pyrazol-4-yl)amino)pyrimidin-4-yl)amino)phenyl)methanesulfonamide]
≤ 100	Cc1nn(CC(F)F)cc1Nc1ncc(Cl)c(Nc2ccccc2NS(C)(=O)=O)n1 [Example 81, N-(2-((5-chloro-2-((1-(2,2-difluoroethyl)-3-methyl-1H-pyrazol-4-yl)amino)pyrimidin-4-yl)amino)phenyl)methanesulfonamide]
1000 to 10000	CC(C)n1ccc(Nc2ncc(Cl)c(Nc3ccccc3NS(=O)(=O)C3CC3)n2)n1 [Example 54, N-(2-((5-chloro-2-((1-isopropyl-1H-pyrazol-3-yl)amino)pyrimidin-4-yl)amino)phenyl)cyclopropanesulfonamide]
100 to 1000	Cn1ccc(Nc2ncc(Cl)c(Nc3ccccc3NS(=O)(=O)C3CC3)n2)n1 [Example 53, N-(2-((5-chloro-2-((1-methyl-1H-pyrazol-3-yl)amino)pyrimidin-4-yl)amino)phenyl)cyclopropanesulfonamide]
≤ 100	COCCn1cc(Nc2ncc(Cl)c(Nc3cccc(F)c3NS(C)(=O)=O)n2)cn1 [Example 93, N-(2-((5-chloro-2-((1-(2-methoxyethyl)-1H-pyrazol-4-yl)amino)pyrimidin-4-yl)amino)-6-fluorophenyl)methanesulfonamide]
≤ 100	CS(=O)(=O)Nc1ccccc1Nc1nc(Nc2cn[nH]c2)ncc1Cl [Example 25, N-(2-(2-(1H-pyrazol-4-ylamino)-5-chloropyrimidin-4-ylamino)phenyl)methanesulfonamide]
≤ 100	Cn1nc(Nc2ncc(Cl)c(Nc3ccccc3NS(C)(=O)=O)n2)cc1C(=O)NCCO [Example 101, 3-((5-chloro-4-((2-(methylsulfonamido)phenyl)amino)pyrimidin-2-yl)amino)-N-(2-hydroxyethyl)-1-methyl-1H-pyrazole-5-carboxamide]
≤ 100	CS(=O)(=O)Nc1ccccc1Nc1nc(Nc2ccon2)ncc1Br [Example 50, N-(2-((5-bromo-2-(isoxazol-3-ylamino)pyrimidin-4-yl)amino)phenyl)methanesulfonamide]
100 to 1000	COc1nn(CC(F)F)cc1Nc1ncc(F)c(Nc2ccccc2NS(C)(=O)=O)n1 [Example 73, N-(2-((2-((1-(2,2-difluoroethyl)-3-methoxy-1H-pyrazol-4-yl)amino)-5-fluoropyrimidin-4-yl)amino)phenyl)methanesulfonamide]
≤ 100	CCn1nc(Nc2ncc(Cl)c(Nc3ccccc3NS(C)(=O)=O)n2)cc1C [Example 59, N-(2-((5-chloro-2-((1-ethyl-5-methyl-1H-pyrazol-3-yl)amino)pyrimidin-4-yl)amino)phenyl)methanesulfonamide]
100 to 1000	COc1ccc(Nc2nc(Nc3cc(C)n(C)n3)ncc2F)c(NS(C)(=O)=O)c1 [Example 47, N-(2-((2-((1,5-dimethyl-1H-pyrazol-3-yl)amino)-5-fluoropyrimidin-4-yl)amino)-5-methoxyphenyl)methanesulfonamide]
≤ 100	CNC(=O)c1cc(Nc2ncc(Cl)c(Nc3ccccc3NS(C)(=O)=O)n2)nn1C [Example 97, 3-((5-chloro-4-((2-(methylsulfonamido)phenyl)amino)pyrimidin-2-yl)amino)-N,1-dimethyl-1H-pyrazole-5-carboxamide]
≤ 100	Cn1nc(Nc2ncc(Cl)c(Nc3ccccc3NS(C)(=O)=O)n2)cc1C(=O)O [Example 92, 3-((5-chloro-4-((2-(methylsulfonamido)phenyl)amino)pyrimidin-2-yl)amino)-1-methyl-1H-pyrazole-5-carboxylic acid]
100 to 1000	Cc1nn(CC(F)F)cc1Nc1ncc(F)c(Nc2ccccc2NS(C)(=O)=O)n1 [Example 72, N-(2-((2-((1-(2,2-difluoroethyl)-3-methyl-1H-pyrazol-4-yl)amino)-5-fluoropyrimidin-4-yl)amino)phenyl)methanesulfonamide]
1000 to 10000	CCS(=O)(=O)Nc1ccccc1Nc1nc(Nc2cc(C)n(C)n2)ncc1F [Example 61, N-(2-((2-((1,5-dimethyl-1H-pyrazol-3-yl)amino)-5-fluoropyrimidin-4-yl)amino)phenyl)ethanesulfonamide]
1000 to 10000	COc1ccc(Nc2nc(Nc3cc(C(C)(C)C)nn3C)ncc2Cl)c(NS(C)(=O)=O)c1 [Example 10, N-(2-(2-(3-tert-butyl-1-methyl-1H-pyrazol-5-ylamino)-5-chloropyrimidin-4-ylamino)-5-methoxyphenyl)methanesulfonamide]
100 to 1000	CCS(=O)(=O)Nc1ccccc1Nc1nc(Nc2cnn(C)c2)ncc1F [Example 62, N-(2-((5-fluoro-2-((1-methyl-1H-pyrazol-4-yl)amino)pyrimidin-4-yl)amino)phenyl)ethanesulfonamide]
100 to 1000	Cc1cc(Nc2ncc(Cl)c(Nc3ccccc3NS(=O)(=O)C3CC3)n2)nn1C [Example 55, N-(2-((5-chloro-2-((1,5-dimethyl-1H-pyrazol-3-yl)amino)pyrimidin-4-yl)amino)phenyl)cyclopropanesulfonamide]
≤ 100	CCNC(=O)c1cc(Nc2ncc(Cl)c(Nc3ccccc3NS(C)(=O)=O)n2)nn1C [Example 100, 3-((5-chloro-4-((2-(methylsulfonamido)phenyl)amino)pyrimidin-2-yl)amino)-N-ethyl-1-methyl-1H-pyrazole-5-carboxamide]
≤ 100	CCn1nc(Nc2ncc(Cl)c(Nc3cccc(F)c3NS(C)(=O)=O)n2)cc1C [Example 91, N-(2-((5-chloro-2-((1-ethyl-5-methyl-1H-pyrazol-3-yl)amino)pyrimidin-4-yl)amino)-6-fluorophenyl)methanesulfonamide]
≤ 100	Cn1cc(Nc2ncc(Cl)c(Nc3ccccc3NS(=O)(=O)C3CC3)n2)cn1 [Example 58, N-(2-((5-chloro-2-((1-methyl-1H-pyrazol-4-yl)amino)pyrimidin-4-yl)amino)phenyl)cyclopropanesulfonamide]
100 to 1000	Cc1cc(Nc2ncc(Cl)c(Nc3cccc(F)c3NS(C)(=O)=O)n2)nn1C [Example 78, N-(2-((5-chloro-2-((1,5-dimethyl-1H-pyrazol-3-yl)amino)pyrimidin-4-yl)amino)-6-fluorophenyl)methanesulfonamide]
100 to 1000	CCS(=O)(=O)Nc1ccccc1Nc1nc(Nc2ccn(C)n2)ncc1Cl [Example 56, N-(2-((5-chloro-2-((1-methyl-1H-pyrazol-3-yl)amino)pyrimidin-4-yl)amino)phenyl)ethanesulfonamide]
